Read-outs that look alike come from different tables or passages of the source.
How the values were obtained:
[1] = system: patients with CRPC; settings: cited from earlier work
[2] = system: patients with early CRPC (rising PSA and minimal bone disease); settings: cited from earlier work
[3] = system: chronically castrated patients with rising PSA and CRPC; test: Pilot study of BAT with oral etoposide, then second line therapy post-BAT; format: in vivo, human; settings: post-BAT; for PSA decline upon re-challenge: agent previously progressed on
From the text: Based on the preclinical results and potential mechanisms for growth inhibition that include androgen-induced double strand breaks and stabilization of AR preventing relicensing, we have conducted a pilot study evaluating the efficacy and safety of pharmacologic doses of testosterone to produce high dose T levels in conjunction with oral etoposide in chronically castrated patients with rising PSA and CRPC (37). Patients who had been continuously castrate for more than one year with minimal metastatic disease burden (≤5 total bone metastases and ≤10 total sites of metastases) and/or rising PSA were eligible. To achieve rapid cycling between high dose and near castrate serum T (i.e., BAT) patients received intramuscular injection of 400 mg testosterone cypionate every 28 days. For the first 3 cycles of therapy patients received BAT plus oral etoposide 100 mg po/day days 1-14 of a 28-day cycle. After 3 cycles PSA response and objective response were assessed. Those patients with a PSA that was declining from peak levels and no objective evidence of disease progression or worsening pain were continued on therapy. Given the toxicity associated with etoposide and the lack of clinical response in an earlier trial (38), patients who responded after 3 cycles of testosterone plus etoposide were continued on testosterone alone based on protocol amendment.

[4] = system: patients with CRPC progressing on Enza (Cohort A) or Abi (Cohort B); format: in vivo, human; settings: re-exposed to agent progressed on before BAT
From the text: The RESTORE study (NCT02090114) was an NIH sponsored Phase II study designed to assess the safety and efficacy of BAT in patients (n=30 per cohort) with CRPC progressing on Enza (Cohort A) or Abi (Cohort B), FIG. 18A (34,39). The primary endpoint of the first part of the study was to assess PSA response to BAT. Secondary endpoints included objective response, safety, and quality of life. The second part of the study was to determine in BAT could re-sensitize patients to repeat exposure to second line therapy that patients were progressing on prior to receiving BAT. Thus, patients progressing on Enza were re-exposed to Enza after BAT and similarly for Abi. Both arms of this study met the primary endpoint. PSA50 response to BAT was 30% in patient's post-Enza and 18% post-Abi, FIG. 18B. […] Overall duration of response to BAT and duration of response to re-exposure was longer in the post-Enza vs. post-Abi cohort. The PSAso response to re-exposure to Enza was 71% vs. only 21% for patients re-exposed to Abi, FIG. 19B (7). A third cohort was later added (Cohort C) for patients progressing on ADT alone. Overall, 90 patients were treated on this study over a 4-year period (2014-2018).

[5] = system: MYC in LNCaP and VCaP cells; test: MYC expression by western blot, RT-PCR, RNAseq; format: cell-based, human; settings: to the level of SPA monotherapy
From the text: FIG. 5A, FIG. 5B, FIG. 5C, FIG. 5D, and FIG. 5E show: FIG. 5A, MYC expression by IHC in a metastatic tumor biopsy from a patient before and after 3 months of BAT. FIG. 5B, Quantification of MYC protein expression from metastatic tumor biopsies from patients before and after 3 months of BAT color-coded by response (non-responder NR; responder R). […] Vinculin was used as a loading control. FIG. 5D, Principal component analysis of RNA and ATAC sequencing of LNCaP cells treated for 5 days with R1881 10 nM (SPA). […] Vinculin was used as a loading control;

[6] = system: LNCaP cells; test: Colony formation (clonal survival); format: cell-based, human; settings: Homo sapiens, LNCaP; 0.5 nM
From the text: (§1) FIG. 3A. […] Ns, not significant. FIG. 3B. […] Ns, not significant. FIG. 3C. […] P values by ANOVA;

[7] = system: VCaP cells; test: Colony formation (clonal survival); format: cell-based, human; settings: Homo sapiens, VCaP; 0.5 nM
From the text: as §1

[8] = system: LNCaP cells; test: Putrescine abundance by HPLC in cells and media; format: cell-based, human; settings: 10 nM
From the text: Vinculin was used as a loading control. FIG. 2F, Polyamine synthesis pathway.

[9] = system: SKCaP-1R patient-derived xenograft tumors; test: Global metabolomics of SKCaP-1R tumors; format: in vivo, castrated NSG mice; settings: 14 days of treatment
[10] = system: patients with advanced CRPC, long-term castrates; settings: cited from earlier work

What does the source list for C[C@]12CC[C@H]3[C@@H](CCC4=CC(=O)CC[C@@]43C)[C@@H]1CC[C@@H]2O [transdermal T]?
grade 3 or 4 toxicities, pain flares ([1]; 7.5 mg/day): no grade 3 or 4 toxicities and no pain flares; objective responses ([1]; 7.5 mg/day): No objective responses; patients with >50% PSA decline ([1]; 12 patients): one; patients with at least 20% PSA declines ([1]; 12 patients): Four; median concentration of T ([2]; 2.5 mg/day transdermal): 305 ng/dL; median concentration of T ([2]; 5.0 mg/day transdermal): 308 ng/dL; median concentration of T ([2]; 7.5 mg/day transdermal): 297 ng/dL; patients with a decrease in PSA ([2]; 15 patients): 20%; grade 3 or 4 toxicities ([2]; in vivo): no grade 3 or 4 toxicities were observed with the exception of one person; largest decrease in PSA ([2]; in vivo): 43%; patients with symptomatic progression ([2]; in vivo): one

With C[C@]12CC[C@H](O)CC1=CC[C@@H]1[C@@H]2CC[C@]2(C)C(c3cccnc3)=CC[C@@H]12 [Abi] as the compound, how does the “patients with >50% PSA decline on second line therapy” value [3] read?
The value was “Four of 4”.

What about the “PSA50 response to re-exposure (re-challenge) post-BAT” value [4] of the same compound?
Its value is 21%.

Which “rescue of MYC in cells treated with SPA and DFMO” value [5] does the source give for N=C(N)c1cccc2c1CC/C2=N\N=C(N)N [SAM486] here?
The value was “phenocopied”.

With C[C@]1(O)CC[C@H]2[C@@H]3CCC4=CC(=O)CCC4=C3C=C[C@@]21C [R1881, 17α-methyl-19-nor-δ9,11-testosterone] as the compound, how does the inhibition at 0.0005 µM [6] read?
The inhibition at 0.0005 µM was about 15%.

What about the inhibition at 0.0005 µM [7] of the same compound?
Its inhibition at 0.0005 µM is about 15%.

And the “putrescine, intracellular and extracellular” value [8]?
Its value is “Marked intracellular and extracellular accumulation”.

For CC(O)(CS(=O)(=O)c1ccc(F)cc1)C(=O)Nc1ccc(C#N)c(C(F)(F)F)c1 (stereo not shown) [bicalutamide], which “PSA decline upon re-challenge” value [3] is on record?
Its value is 30.9%.

Which “PSA decline upon re-challenge” value [3] does the source give for CC1(C)NC(=O)N(c2ccc([N+](=O)[O-])c(C(F)(F)F)c2)C1=O [nilutamide] here?
The value was 44.3%.

With C[S+](CC[C@H](N)C(=O)O)C[C@H]1O[C@@H](n2cnc3c(N)ncnc32)[C@H](O)[C@@H]1O (stereo partly shown) [SAM, S-adenosylmethionine] as the compound, how does the “rescue of MYC in cells treated with SPA and DFMO” value [5] read?
Its value is “sufficient to rescue MYC”.

What does the source list for C[C@]12CC[C@H]3[C@@H](CCC4=CC(=O)CC[C@@]43C)[C@@H]1CC[C@@H]2O [testosterone]?
abundance of polyamine precursors ornithine and SAM in tumors [9]: decreased; abundance of polyamines putrescine and spermine in tumors [9]: increased; clinical improvement (pain, prostate size, phosphatases) ([10]; Brendler et al. 1949, parenteral): considerable improvement in several patients; patients with subjective improvement ([10]; long-term castrate group, at least one month): 4 of 5; patients with decline of acid phosphatase ([10]; longer course of testosterone): 2/5

— patent US20260284076A1, “TESTOSTERONE AND DIFLUOROMETHYLORNITHINE COMBINATION THERAPY FOR PROSTATE CANCER” (The Johns Hopkins University, priority 2023, published 2026)
